Patent US20240150377A1, “MODULATORS OF CYSTIC FIBROSIS TRANSMEMBRANE CONDUCTANCE REGULATOR” (VERTEX PHARMACEUTICALS INCORPORATED, priority 2020, published 2024)
Like-named read-outs stand apart in the source and are kept apart here.

Biological target: T1, CFTR (Homo sapiens, UniProt P13569, DEL508-508)
T1 construct: endogenous in cells; host or cells: primary human bronchial epithelial cells from CF subjects (F508del/MF-HBE), differentiated at air-liquid interface
Assay: HBE assay: Ussing chamber assay of CFTR-mediated short-circuit currents
Assay type: cell-based
Conditions: for EC50: read-out: HBE EC50
Summary of the method: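 CFTR-mediated Isc (μA/cm²) equals the peak response to apical 20 μM forskolin minus the residual after a 20 μM each BPO/GlyH-101/CFTR inhibitor 172 cocktail, recorded in Ussing chambers at Vhold 0 mV, 37 °C, pH 7.4, with 30 μM apical amiloride. Cells were F508del/MF HBE cultures preincubated 18-24 h with corrector (concentration range or 10 μM) plus 1 μM ivacaftor in 20% human serum.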

[1] = Table 10, read-out: HBE Max activity (%)
[2] = Table 12, read-out: HBE Max Activity (%)
[3] = Table 12, read-out: HBE Activity at 10 μM (%)
[4] = Table 11, read-out: HBE Activity at 10 μM (%)
[5] = Table 13, read-out: HBE Max Activity (%)
[6] = Table 13, read-out: HBE Activity at 10 μM (%)

T1 sequence (P13569 with tags, fused parts or gaps DEL508-508): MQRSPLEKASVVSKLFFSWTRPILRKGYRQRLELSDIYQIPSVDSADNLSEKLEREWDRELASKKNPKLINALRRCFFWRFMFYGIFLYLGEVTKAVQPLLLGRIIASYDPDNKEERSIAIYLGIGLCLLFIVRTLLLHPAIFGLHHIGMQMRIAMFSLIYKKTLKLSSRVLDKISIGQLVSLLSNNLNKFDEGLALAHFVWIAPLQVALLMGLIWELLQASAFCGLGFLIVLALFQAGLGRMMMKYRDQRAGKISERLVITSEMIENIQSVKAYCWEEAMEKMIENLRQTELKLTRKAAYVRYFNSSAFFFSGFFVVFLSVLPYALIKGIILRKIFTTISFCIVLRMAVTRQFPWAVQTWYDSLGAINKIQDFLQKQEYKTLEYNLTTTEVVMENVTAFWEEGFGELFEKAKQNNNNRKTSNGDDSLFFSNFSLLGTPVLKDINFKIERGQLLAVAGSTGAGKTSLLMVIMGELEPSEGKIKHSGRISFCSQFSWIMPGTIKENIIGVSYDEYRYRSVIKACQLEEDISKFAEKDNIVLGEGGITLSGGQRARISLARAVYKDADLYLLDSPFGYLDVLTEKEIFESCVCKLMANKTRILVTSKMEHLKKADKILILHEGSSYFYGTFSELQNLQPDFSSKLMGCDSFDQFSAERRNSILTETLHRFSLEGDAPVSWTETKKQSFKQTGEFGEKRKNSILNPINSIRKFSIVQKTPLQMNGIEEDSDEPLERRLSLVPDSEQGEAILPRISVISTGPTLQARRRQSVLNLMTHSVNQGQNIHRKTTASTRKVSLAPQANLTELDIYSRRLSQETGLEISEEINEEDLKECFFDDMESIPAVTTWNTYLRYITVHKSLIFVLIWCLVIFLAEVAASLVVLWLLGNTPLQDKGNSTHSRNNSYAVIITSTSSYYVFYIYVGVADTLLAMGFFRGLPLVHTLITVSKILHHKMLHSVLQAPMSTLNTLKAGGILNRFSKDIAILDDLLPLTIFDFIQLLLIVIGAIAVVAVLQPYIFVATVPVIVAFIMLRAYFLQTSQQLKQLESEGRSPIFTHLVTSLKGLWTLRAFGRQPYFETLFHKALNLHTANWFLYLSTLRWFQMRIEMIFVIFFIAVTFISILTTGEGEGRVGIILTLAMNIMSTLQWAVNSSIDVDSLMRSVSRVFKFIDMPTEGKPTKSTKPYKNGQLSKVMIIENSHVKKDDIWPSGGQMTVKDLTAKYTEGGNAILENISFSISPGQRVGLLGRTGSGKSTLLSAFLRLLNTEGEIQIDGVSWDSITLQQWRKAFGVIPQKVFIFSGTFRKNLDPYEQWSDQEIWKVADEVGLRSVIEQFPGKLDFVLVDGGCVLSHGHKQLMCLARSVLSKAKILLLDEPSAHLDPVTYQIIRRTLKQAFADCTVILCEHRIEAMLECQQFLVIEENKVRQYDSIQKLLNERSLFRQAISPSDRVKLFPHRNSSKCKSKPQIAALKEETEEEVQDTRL

For Cc1cccc(C)c1-c1cc2nc(n1)NS(=O)(=O)c1cccc(c1)C(=O)N(Cc1cccc(-c3c[nH]nc3C)c1)[C@H](CC(C)(C)C)CO2 [Compound 312], the activation at 10 µM (Table 10, read-out: HBE activity at 10 (μM) (%)) was over 60%.

Work on Cc1cccc(C)c1-c1cc2nc(n1)NS(=O)(=O)c1cccc(c1)C(=O)N(Cc1cccc(-c3c(C)n[nH]c3C)c1)[C@H](CC(C)(C)C)CO2 [Compound 313] yielded an EC50 (Table 10) of under 1 µM and an Emax [1] of over 60%.

Cc1cccc(C)c1-c1cc2nc(n1)NS(=O)(=O)c1cccc(c1)C(=O)N(Cc1nc(N(C)C)cc(N(C)C)n1)[C@H](CC(C)(C)C)CO2 [Compound 322] was tested, and the EC50 (Table 12) was under 1 µM and the Emax [2] was over 60%.

Cc1cc(N(C)C(C)C)nc(CN2C(=O)c3cccc(c3)S(=O)(=O)Nc3nc(cc(-c4c(C)cccc4C)n3)OC[C@H]2CC(C)(C)C)n1 [Compound 323] showed an activation at 10 µM [3] of over 600%.

Cc1cc(N(C)C)nc(CN2C(=O)c3cccc(c3)S(=O)(=O)Nc3nc(cc(-c4c(C)cccc4C)n3)OC[C@H]2CC(C)(C)C)n1 [Compound 324] gave an activation at 10 µM [3] of over 600%.

Cc1cccc(C)c1-c1cc2nc(n1)NS(=O)(=O)c1cccc(c1)C(=O)N(Cc1nc(N(C)C)cc(C(F)(F)F)n1)[C@H](CC(C)(C)C)CO2 [Compound 325] showed an activation at 10 µM [3] of over 600%.

With Cc1cccc(C)c1-c1cc2nc(n1)NS(=O)(=O)c1cccc(c1)C(=O)N(Cc1nc(N(C)C(C)C)cc(C(F)(F)F)n1)[C@H](CC(C)(C)C)CO2 [Compound 326] the activation at 10 µM [3] was over 600%.

Cc1cnc(CN2C(=O)c3cccc(c3)S(=O)(=O)Nc3nc(cc(-c4c(C)cccc4C)n3)OC[C@H]2CC(C)(C)C)nc1N1CCCC1(C)C [Compound 327] gave an activation at 10 µM [3] of over 600%.

Compound Cc1cnc(CN2C(=O)c3cccc(c3)S(=O)(=O)Nc3nc(cc(-c4c(C)cccc4C)n3)OC[C@H]2CC(C)(C)C)nc1N(C)CC(C)(C)C [Compound 328] has an EC50 (Table 12) of under 1 µM and an Emax [2] of over 60%.

Cc1cnc(CN2C(=O)c3cccc(c3)S(=O)(=O)Nc3nc(cc(-c4c(C)cccc4C)n3)OC[C@H]2CC(C)(C)C)nc1N(C)C1CCCC1 [Compound 329] gave an activation at 10 µM [3] of over 600%.

In the case of Cc1cnc(CN2C(=O)c3cccc(c3)S(=O)(=O)Nc3nc(cc(-c4c(C)cccc4C)n3)OC[C@H]2CC(C)(C)C)nc1N(C)C(C)C [Compound 330], the activation at 10 µM [3] is reported as over 600%.

Work on Cc1cccc(C)c1-c1cc2nc(n1)NS(=O)(=O)c1cccc(c1)C(=O)N(Cc1ccc(N3CCOCC3)cn1)C(CC(C)(C)C)CO2 (stereo not drawn) [Compound 332] yielded an activation at 10 µM [4] of under 30%.

Work on Cc1cccc(O)c1-c1cc2nc(n1)NS(=O)(=O)c1cccc(c1)C(=O)N(Cc1ccc(N3CCOCC3)cn1)[C@H](CC(C)(C)C)CO2 [Compound 333] yielded an activation at 10 µM [4] of 30 to 60%.

With Cc1cccc(C)c1-c1cc2nc(n1)NS(=O)(=O)c1cccc(c1)C(=O)N(Cc1cccc(OC(C)C)n1)[C@H](CC(C)(C)C)CO2 [Compound 370] the EC50 (Table 13) was under 1 µM and the Emax [5] was over 60%.

In the case of Cc1cccc(C)c1-c1cc2nc(n1)NS(=O)(=O)c1cccc(c1)C(=O)N(Cc1nc(N(C)CC(C)(C)C)ccc1F)[C@H](CC(C)(C)C)CO2 [Compound 371], the EC50 (Table 13) is reported as under 1 µM and the Emax [5] is reported as over 60%.

Cc1cccc(C)c1-c1cc2nc(n1)NS(=O)(=O)c1cccc(c1)C(=O)N(Cc1nc(Br)ccc1F)[C@H](CC(C)(C)C)CO2 [Compound 372] gave an activation at 10 µM [6] of over 600%.

Cc1cccc(C)c1-c1cc2nc(n1)NS(=O)(=O)c1cccc(c1)C(=O)N(Cc1cccnc1N1CCOCC1)[C@H](CC(C)(C)C)CO2 [Compound 374] gave an EC50 (Table 10) of under 1 µM and an Emax [1] of over 60%.

For Cc1cccc(C)c1-c1cc2nc(n1)NS(=O)(=O)c1cccc(c1)C(=O)N(Cc1cc(N3CCOCC3)ccn1)[C@H](CC(C)(C)C)CO2 [Compound 375], the EC50 (Table 10) was under 1 µM and the Emax [1] was over 60%.

Compound Cc1cccc(C)c1-c1cc2nc(n1)NS(=O)(=O)c1cccc(c1)C(=O)N(Cc1cnccc1N1CCOCC1)[C@H](CC(C)(C)C)CO2 [Compound 376] has an EC50 (Table 10) of under 1 µM and an Emax [1] of over 60%.

For Cc1cccc(C)c1-c1cc2nc(n1)NS(=O)(=O)c1cccc(c1)C(=O)N(Cc1ncccc1N1CCCCC1)[C@H](CC(C)(C)C)CO2 [Compound 377], the EC50 (Table 10) was under 1 µM and the Emax [1] was over 60%.

In the case of COCCNc1cccnc1CN1C(=O)c2cccc(c2)S(=O)(=O)Nc2nc(cc(-c3c(C)cccc3C)n2)OC[C@H]1CC(C)(C)C [Compound 378], the EC50 (Table 10) is reported as under 1 µM and the Emax [1] is reported as over 60%.

For Cc1cccc(C)c1-c1cc2nc(n1)NS(=O)(=O)c1cccc(c1)C(=O)N(Cc1ncccc1N(C)C)[C@H](CC(C)(C)C)CO2 [Compound 379], the EC50 (Table 10) was under 1 µM and the Emax [1] was over 60%.

Compound Cc1cccc(C)c1-c1cc2nc(n1)NS(=O)(=O)c1cccc(c1)C(=O)N(Cc1ccccn1)[C@H](CC(C)(C)C)CO2 [Compound 381] has an Emax [1] of over 60%.

For COc1cccnc1CN1C(=O)c2cccc(c2)S(=O)(=O)Nc2nc(cc(-c3c(C)cccc3C)n2)OC[C@H]1CC(C)(C)C [Compound 382], the EC50 (Table 10) was under 1 µM and the Emax [1] was over 60%.

Cc1cccc(C)c1-c1cc2nc(n1)NS(=O)(=O)c1cccc(c1)C(=O)N(Cc1cccc(N3CCOCC3)n1)[C@H](CC(C)(C)C)CO2 [Compound 384] gave an EC50 (Table 10) of under 1 µM and an Emax [1] of over 60%.

Compound Cc1cccc(C)c1-c1cc2nc(n1)NS(=O)(=O)c1cccc(c1)C(=O)N(Cc1ccc(C(C)(C)C)cc1O)[C@H](CC(C)(C)C)CO2 [Compound 433] has an activation at 10 µM [6] of over 600%.

In the case of Cc1cccc(C)c1-c1cc2nc(n1)NS(=O)(=O)c1cccc(c1)C(=O)N(Cc1nccc(N(C)C(C3CC3)C3CC3)n1)[C@H](CC(C)(C)C)CO2 [Compound 434], the activation at 10 µM [6] is reported as over 600%.

For Cc1cccc(C)c1-c1cc2nc(n1)NS(=O)(=O)c1cccc(c1)C(=O)N(Cc1nccc(N(C)C3CCC(C)(C)CC3)n1)[C@H](CC(C)(C)C)CO2 [Compound 435], the EC50 (Table 13) was under 1 µM and the Emax [5] was over 60%.

With Cc1cccc(C)c1-c1cc2nc(n1)NS(=O)(=O)c1cccc(c1)C(=O)N(Cc1nccc(N(C)C3CC(C)(C)C3)n1)[C@H](CC(C)(C)C)CO2 [Compound 436] the EC50 (Table 13) was under 1 µM and the Emax [5] was over 60%.

With Cc1cccc(C)c1-c1cc2nc(n1)NS(=O)(=O)c1cccc(c1)C(=O)N(Cc1cncc(N(C)C3CCC34CCC4)n1)[C@H](CC(C)(C)C)CO2 (stereo partly drawn) [Compound 437] the EC50 (Table 12) was under 1 µM and the Emax [2] was over 60%.

Compound Cc1cccc(C)c1-c1cc2nc(n1)NS(=O)(=O)c1cccc(c1)C(=O)N(Cc1cncc(N(C)C3CCC34CCC4)n1)[C@H](CC(C)(C)C)CO2 (stereo partly drawn) [Compound 438] has an EC50 (Table 12) of under 1 µM.

Cc1cccc(C)c1-c1cc2nc(n1)NS(=O)(=O)c1cccc(c1)C(=O)N(Cc1cccc(N(C)C3CC4(CCC4)C3)n1)[C@H](CC(C)(C)C)CO2 [Compound 439] showed an EC50 (Table 12) of under 1 µM and an Emax [2] of over 60%.

Cc1cccc(C)c1-c1cc2nc(n1)NS(=O)(=O)c1cccc(c1)C(=O)N(Cc1cccc(NC34CC(C3)C4)n1)[C@H](CC(C)(C)C)CO2 [Compound 440] gave an EC50 (Table 12) of under 1 µM and an Emax [2] of over 60%.

Cc1cccc(C)c1-c1cc2nc(n1)NS(=O)(=O)c1cccc(c1)C(=O)N(Cc1cncc(N(C)C3CC4(CCC4)C3)n1)[C@H](CC(C)(C)C)CO2 [Compound 441] was tested, and the EC50 (Table 12) was under 1 µM and the Emax [2] was over 60%.

Cc1cccc(C)c1-c1cc2nc(n1)NS(=O)(=O)c1cccc(c1)C(=O)N(Cc1cncc(N(C)CC3C4(CC4)C34CC4)n1)[C@H](CC(C)(C)C)CO2 [Compound 442] was tested, and the EC50 (Table 12) was under 1 µM and the Emax [2] was over 60%.

In the case of Cc1cccc(C)c1-c1cc2nc(n1)NS(=O)(=O)c1cccc(c1)C(=O)N(Cc1cncc(N(C)C34CC(C3)C4)n1)[C@H](CC(C)(C)C)CO2 [Compound 443], the EC50 (Table 12) is reported as under 1 µM and the Emax [2] is reported as over 60%.
